Measured values taken from patent US20260207570A1, “OPTIMIZED DOSING OF LERIGLITAZONE” (MINORYX THERAPEUTICS S.L., priority 2022, published 2026).
Where two headings read alike, the source gives them in different places.

How the values were obtained:
[1] = Phase 1 multiple ascending dose (MAD) pharmacokinetics with CSF collection in healthy volunteers; type: in vivo, human; conditions: for accumulation RCmax: day 8 vs day 1; for Kp at 4 h / concentration at 4 h / Tmax / Vd/F / Cmax: male, human, oral; for Kp at 4 h: CSF and plasma; for Tmax: Median, read-out: Tmax; for Vd/F: read-out: Vz/F; for Cmax: plasma total, geometric mean, read-out: Cmax
Experimental: (§1) Study design: A phase 1, randomized, double blind, placebo-controlled, single-center clinical study in 33 male healthy volunteers (HV) (19-54 years, 63.2-95.7 Kg) was conducted with leriglitazone HCl and divided in two parts: a single ascending dose (SAD) with three dose levels (30, 90 and 270 mg) in fasted conditions, followed with two dose levels (90 and 270 mg) in fed conditions; a multiple ascending dose (MAD) with a double-blind, parallel-design with two dose levels (135 and 270 mg) for 8 days and a separate cohort of subjects in an open-label parallel design with two dose levels (135 and 270 mg) including cerebrospinal fluid (CSF) collection on day 8. In the fasted conditions a fasting period of at least 4 hours was required before obtaining plasma samples. The food effect (FE) was assessed by comparing fasted with fed conditions (dosing after a high-fat breakfast per FDA definition with a calculated caloric content of 918 kcal). In the MAD part (fed) the medication was taken before a normal breakfast. Leriglitazone HCl was supplied by ChemConnection and an oral suspension of leriglitazone (20% w/v kleptose, 2% ethanol in 100 mM phosphate buffer pH=7.8) at 6 mg/ml was used in the study.
(§2) Blood, Urine and CSF sampling: In the SAD, blood samples were drawn at the following time points: pre-dose and 0.25, 0.5, 0.75, 1, 1.5, 2, 2.5, 3, 4, 5, 6, 8, 10, 12, 16, 24, 36, 48, 72, 96 and 120 hours post-dose. Urine was collected at pre-dose (within 12 hours prior to dosing) and over 0-6, 6-12, 12-24, 24-36, 36-48 hours post-dose collection intervals. In the MAD, blood samples were collected on day 1 at pre-dose and 0.25, 0.5, 0.75, 1, 1.5, 2, 2.5, 3, 4, 5, 6, 8, 10, 12, and 16 hours post-dose and at pre-dose and at 4 hours post-dose on day 2 to day 7, and on day 8 at pre-dose and 0.25, 0.5, 0.75, 1, 1.5, 2, 2.5, 3, 4, 5, 6, 8, 10, 12, 16, 24, 36, 48, 72, 96 and 120 hours post-dose. CSF were taken on day −1 and on day 8, at 4 hours post-dose.
(§3) Pharmacokinetic parameter calculation: PK parameters (Cmax, Tmax, t1/2, AUC0-t, CL/F, Vz/F, AUC0-t, RAUC, RCmax) were estimated using non-compartmental analysis (NCA) (Phoenix WinNonlin® Version 6.3).
(§4) Statistical analysis: Descriptive statistics for all relevant PK parameters: n, mean, minimum, median, maximum, geometric mean, and coefficient of variation (CV %); analysis of variance on Cmax and AUC to determine dose proportionality and food effect (FE).
The ratio of unbound leriglitazone concentration in brain to unbound concentration in plasma (Kpu,u; Cb,u/Cp,u) was calculated dividing the unbound CSF Cmax by the unbound plasma Cmax. Fractions unbound in plasma (fu,p) to obtain the unbound Cmax values were already reported. Rodriguez-Pascau, L. et al., Sci. Transl. Med. 13, eabc0555 (2021).

[2] = Phase 1 single ascending dose (SAD) pharmacokinetics in healthy volunteers; type: in vivo, human; conditions: for half-life / Tmax / Cmax / AUC(0-t) / AUC: male, human, plasma, oral; for Tmax: read-out: Tmax; for Cmax: plasma total, read-out: Cmax; for AUC(0-t) / AUC: geometric mean; for AUC: read-out: AUC
Experimental: as §1, §2, §3, §4

[3] = plasma, 135 mg, 135 mg MD Day 1, n = 8
[4] = plasma, 135 mg, 135 mg MD Day 8, n = 8
[5] = plasma, 270 mg, 270 mg MD Day 1, n = 8
[6] = plasma, 270 mg, 270 mg MD Day 8, n = 7

CL/F ([1]; 135 mg MD Day 1, n = 8, geometric mean (CV %)): 3.69 (29.4) L./h
CL/F ([1]; 135 mg MD Day 8, n = 8, geometric mean (CV %)): 2.15 (27.6) L./h
CL/F ([1]; 270 mg MD Day 1, n = 8, geometric mean (CV %)): 3.29 (26.4) L./h
Plasma C4h ([1]; 270 mg MD Day 8, 4 hours post-dose, total, geometric mean (CV %)): :5673 (34.2) ng/mL
CL/F ([1]; 270 mg MD Day 8, n = 7, geometric mean (CV %)): 2.13 (25.9) L./h
increase of CSF concentration on doubling the dose ([1]; 270 mg vs 135 mg, day 8, 4 hours post-dose): 1.7 fold
accumulation RCmax ([1]; MAD 135 mg): 1.57
accumulation RAUC ([1]; MAD 270 mg dose): 1.63
accumulation RCmax ([1]; MAD 270 mg): 1.69
brain penetration ([1]; judged from CSF to plasma concentrations): limited
Kp at 4 h ([1]; 135 mg MD Day 8, geometric mean (CV %), read-out: CSF/Plasma): 0.004
Kp at 4 h ([1]; 270 mg MD Day 8, geometric mean (CV %), read-out: CSF/Plasma): 0.004
Kp at 4 h ([1]; day 8, 4 hours post-dose, read-out: total concentrations in CSF as share of total plasma concentrations): 0.004
concentration at 4 h ([1]; CSF, 135 mg MD Day 8, 4 hours post-dose, total, geometric mean (CV %), read-out: CSF C4h): 13 ng/mL
concentration at 4 h ([1]; CSF, 270 mg MD Day 8, 4 hours post-dose, total, geometric mean (CV %), read-out: CSF C4h): 22 ng/mL
Tmax [1, 3]: 3.5 h
Vd/F ([1]; plasma, 135 mg, 135 mg MD Day 1, n = 8, geometric mean (CV %)): 111 L
Cmax [1, 3]: 2470 ng/mL
Tmax [1, 4]: 2.75 h
Vd/F ([1]; plasma, 135 mg, 135 mg MD Day 8, n = 8, geometric mean (CV %)): 63.5 L
Cmax [1, 4]: 4150 ng/mL
Tmax [1, 5]: 3.5 h
Vd/F ([1]; plasma, 270 mg, 270 mg MD Day 1, n = 8, geometric mean (CV %)): 103 L
Cmax [1, 5]: 5360 ng/mL
Tmax [1, 6]: 2.5 h
Vd/F ([1]; plasma, 270 mg, 270 mg MD Day 8, n = 7, geometric mean (CV %)): 69.3 L
Cmax [1, 6]: 8030 ng/mL
concentration at 4 h ([1]; plasma, 135 mg MD Day 8, 4 hours post-dose, total, geometric mean (CV %), read-out: Plasma C4h): 3600 ng/mL
dose excreted in urine as free analyte ([2]; 48-hour collection period): < 0.01%
dose excreted in urine as the analyte, mostly in a conjugated state ([2]; 48-hour collection period): 0.3%
half-life ([2]; 30 mg, M3 section, SAD 30 mg fasted, n = 6, geometric mean (CV %), read-out: t1/2 (converted)): 22.1 h
Tmax ([2]; 30 mg, SAD 30 mg fasted, n = 6, Median): 0.63 h
Cmax ([2]; 30 mg, SAD 30 mg fasted, n = 6, geometric mean (CV %)): 828 ng/mL
half-life ([2]; 90 mg, M3 section, SAD 90 mg fasted, n = 6, geometric mean (CV %), read-out: t1/2 (converted)): 23.2 h
half-life ([2]; 90 mg, M3 section, SAD 90 mg fed, n = 3, geometric mean (CV %), read-out: t1/2 (converted)): 25.7 h
Tmax ([2]; 90 mg, SAD 90 mg fasted, n = 6, Median): 0.63 h
AUC(0-t) ([2]; 90 mg, SAD 90 mg fasted, n = 6): 59400 ng·h/mL
AUC ([2]; 90 mg, SAD 90 mg fasted, n = 6): 61800 ng·h/mL
Cmax ([2]; 90 mg, SAD 90 mg fasted, n = 6, geometric mean (CV %)): 2550 ng/mL
Tmax ([2]; 90 mg, SAD 90 mg fed, n = 3, Median): 5 h
AUC(0-t) ([2]; 90 mg, SAD 90 mg fed, n = 3): 59900 ng·h/mL
AUC ([2]; 90 mg, SAD 90 mg fed, n = 3): 62200 ng·h/mL
Cmax ([2]; 90 mg, SAD 90 mg fed, n = 3, geometric mean (CV %)): 1980 ng/mL
half-life ([2]; 270 mg, M3 section, SAD 270 mg fasted, n = 5, geometric mean (CV %), read-out: t1/2 (converted)): 21.6 h
half-life ([2]; 270 mg, M3 section, SAD 270 mg fed, n = 5, geometric mean (CV %), read-out: t1/2 (converted)): 22.7 h
Tmax ([2]; 270 mg, SAD 270 mg fasted, n = 5, Median): 1.5 h
Tmax ([2]; 270 mg, SAD 270 mg fed, n = 5, Median): 4 h
AUC(0-t) ([2]; 270 mg, SAD 270 mg fed, n = 5): 155000 ng·h/mL
AUC ([2]; 270 mg, SAD 270 mg fed, n = 5): 159000 ng·h/mL
Cmax ([2]; 270 mg, SAD 270 mg fed, n = 5, geometric mean (CV %)): 5320 ng/mL
Tmax ([2]; 270 mg, SAD fed conditions, 90 and 270 mg): 3 to 6 h
half-life ([2]; SAD, read-out: Half-lives): 22 to 23 h
Compound: CC(=O)c1ccc(CCOc2ccc(CC3SC(=O)NC3=O)cc2)nc1 (stereo not shown) [Compound M3, 5-[[4-[2-[5-acetylpyridin-2-yl]ethoxy]phenyl]methyl]-1,3-thiazolidine-2,4-dione]
